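Grown in 96-well plates, cells were treated for 48 hours with each compound at five concentrations. Insufficient inhibition: endpoint recorded as highest concentration tested. At the TGI there is no net growth.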
tested on: 786-0 renal; test: inhibition of tumour cell growth, NCI panel, 48 h

Row | Compound | TGI [µM]
1 | CC(C)Oc1cccc(N2C(=NCc3c[nH]c4ccccc34)Nc3ccncc3S2(=O)=O)c1 | > 100
2 | COC(=O)c1c(C)cc(OC)c(C/C=C(\C)CCCc2coc(C=C(C)C)c2)c1OC | > 100
3 | Cc1cc(OP2(=O)NCc3ncccc3O2)ccc1Cl (stereo not given) | > 100
4 | O=C(O)c1cccc(S(=O)(=O)NN2C(=O)CSC2c2ccc(Cl)cc2Cl)c1 (stereo not given) | 29.4

tested on: A498 renal; test: inhibition of tumour cell growth, NCI panel, 48 h

Row | Compound | TGI [µM]
5 | CC(C)Oc1cccc(N2C(=NCc3c[nH]c4ccccc34)Nc3ccncc3S2(=O)=O)c1 | > 100
6 | Cc1cc(OP2(=O)NCc3ncccc3O2)ccc1Cl (stereo not given) | > 100
7 | O=C(O)c1cccc(S(=O)(=O)NN2C(=O)CSC2c2ccc(Cl)cc2Cl)c1 (stereo not given) | > 100

tested on: A549 NSCLC; test: inhibition of tumour cell growth, NCI panel, 48 h

Row | Compound | TGI [µM]
8 | CC(C)Oc1cccc(N2C(=NCc3c[nH]c4ccccc34)Nc3ccncc3S2(=O)=O)c1 | > 100
9 | COC(=O)c1c(C)cc(OC)c(C/C=C(\C)CCCc2coc(C=C(C)C)c2)c1OC | > 100
10 | Cc1cc(OP2(=O)NCc3ncccc3O2)ccc1Cl (stereo not given) | > 100
11 | O=C(O)c1cccc(S(=O)(=O)NN2C(=O)CSC2c2ccc(Cl)cc2Cl)c1 (stereo not given) | > 100

tested on: ACHN renal; test: inhibition of tumour cell growth, NCI panel, 48 h

Row | Compound | TGI [µM]
12 | CC(C)Oc1cccc(N2C(=NCc3c[nH]c4ccccc34)Nc3ccncc3S2(=O)=O)c1 | > 100
13 | COC(=O)c1c(C)cc(OC)c(C/C=C(\C)CCCc2coc(C=C(C)C)c2)c1OC | > 100
14 | Cc1cc(OP2(=O)NCc3ncccc3O2)ccc1Cl (stereo not given) | > 100
15 | O=C(O)c1cccc(S(=O)(=O)NN2C(=O)CSC2c2ccc(Cl)cc2Cl)c1 (stereo not given) | > 100

tested on: BT-549 breast; test: inhibition of tumour cell growth, NCI panel, 48 h

Row | Compound | TGI [µM]
16 | CC(C)Oc1cccc(N2C(=NCc3c[nH]c4ccccc34)Nc3ccncc3S2(=O)=O)c1 | > 100
17 | COC(=O)c1c(C)cc(OC)c(C/C=C(\C)CCCc2coc(C=C(C)C)c2)c1OC | > 100
18 | Cc1cc(OP2(=O)NCc3ncccc3O2)ccc1Cl (stereo not given) | > 100
19 | O=C(O)c1cccc(S(=O)(=O)NN2C(=O)CSC2c2ccc(Cl)cc2Cl)c1 (stereo not given) | > 100

tested on: CAKI-1 renal; test: inhibition of tumour cell growth, NCI panel, 48 h

Row | Compound | TGI [µM]
20 | CC(C)Oc1cccc(N2C(=NCc3c[nH]c4ccccc34)Nc3ccncc3S2(=O)=O)c1 | > 100
21 | COC(=O)c1c(C)cc(OC)c(C/C=C(\C)CCCc2coc(C=C(C)C)c2)c1OC | > 100
22 | Cc1cc(OP2(=O)NCc3ncccc3O2)ccc1Cl (stereo not given) | > 100
23 | O=C(O)c1cccc(S(=O)(=O)NN2C(=O)CSC2c2ccc(Cl)cc2Cl)c1 (stereo not given) | > 100

tested on: CCRF-CEM leukemia; test: inhibition of tumour cell growth, NCI panel, 48 h

Row | Compound | TGI [µM]
24 | CC(C)Oc1cccc(N2C(=NCc3c[nH]c4ccccc34)Nc3ccncc3S2(=O)=O)c1 | > 100
25 | COC(=O)c1c(C)cc(OC)c(C/C=C(\C)CCCc2coc(C=C(C)C)c2)c1OC | > 100
26 | Cc1cc(OP2(=O)NCc3ncccc3O2)ccc1Cl (stereo not given) | > 100
27 | O=C(O)c1cccc(S(=O)(=O)NN2C(=O)CSC2c2ccc(Cl)cc2Cl)c1 (stereo not given) | > 100

tested on: COLO 205 colon; test: inhibition of tumour cell growth, NCI panel, 48 h

Row | Compound | TGI [µM]
28 | CC(C)Oc1cccc(N2C(=NCc3c[nH]c4ccccc34)Nc3ccncc3S2(=O)=O)c1 | 29.4
29 | COC(=O)c1c(C)cc(OC)c(C/C=C(\C)CCCc2coc(C=C(C)C)c2)c1OC | > 100
30 | Cc1cc(OP2(=O)NCc3ncccc3O2)ccc1Cl (stereo not given) | > 100
31 | O=C(O)c1cccc(S(=O)(=O)NN2C(=O)CSC2c2ccc(Cl)cc2Cl)c1 (stereo not given) | > 100

tested on: DU-145 prostate; test: inhibition of tumour cell growth, NCI panel, 48 h

Row | Compound | TGI [µM]
32 | CC(C)Oc1cccc(N2C(=NCc3c[nH]c4ccccc34)Nc3ccncc3S2(=O)=O)c1 | > 100
33 | COC(=O)c1c(C)cc(OC)c(C/C=C(\C)CCCc2coc(C=C(C)C)c2)c1OC | > 100
34 | Cc1cc(OP2(=O)NCc3ncccc3O2)ccc1Cl (stereo not given) | > 100
35 | O=C(O)c1cccc(S(=O)(=O)NN2C(=O)CSC2c2ccc(Cl)cc2Cl)c1 (stereo not given) | > 100

tested on: EKVX NSCLC; test: inhibition of tumour cell growth, NCI panel, 48 h

Row | Compound | TGI [µM]
36 | CC(C)Oc1cccc(N2C(=NCc3c[nH]c4ccccc34)Nc3ccncc3S2(=O)=O)c1 | 79
37 | COC(=O)c1c(C)cc(OC)c(C/C=C(\C)CCCc2coc(C=C(C)C)c2)c1OC | > 100
38 | Cc1cc(OP2(=O)NCc3ncccc3O2)ccc1Cl (stereo not given) | > 100
39 | O=C(O)c1cccc(S(=O)(=O)NN2C(=O)CSC2c2ccc(Cl)cc2Cl)c1 (stereo not given) | > 100

tested on: HCC-2998 colon; test: inhibition of tumour cell growth, NCI panel, 48 h

Row | Compound | TGI [µM]
40 | CC(C)Oc1cccc(N2C(=NCc3c[nH]c4ccccc34)Nc3ccncc3S2(=O)=O)c1 | 97.9
41 | COC(=O)c1c(C)cc(OC)c(C/C=C(\C)CCCc2coc(C=C(C)C)c2)c1OC | > 100
42 | Cc1cc(OP2(=O)NCc3ncccc3O2)ccc1Cl (stereo not given) | > 100
43 | O=C(O)c1cccc(S(=O)(=O)NN2C(=O)CSC2c2ccc(Cl)cc2Cl)c1 (stereo not given) | > 100

tested on: HCT-116 colon; test: inhibition of tumour cell growth, NCI panel, 48 h

Row | Compound | TGI [µM]
44 | CC(C)Oc1cccc(N2C(=NCc3c[nH]c4ccccc34)Nc3ccncc3S2(=O)=O)c1 | > 100
45 | COC(=O)c1c(C)cc(OC)c(C/C=C(\C)CCCc2coc(C=C(C)C)c2)c1OC | > 100
46 | Cc1cc(OP2(=O)NCc3ncccc3O2)ccc1Cl (stereo not given) | > 100
47 | O=C(O)c1cccc(S(=O)(=O)NN2C(=O)CSC2c2ccc(Cl)cc2Cl)c1 (stereo not given) | 83.1

tested on: HCT-15 colon; test: inhibition of tumour cell growth, NCI panel, 48 h

Row | Compound | TGI [µM]
48 | CC(C)Oc1cccc(N2C(=NCc3c[nH]c4ccccc34)Nc3ccncc3S2(=O)=O)c1 | > 100
49 | COC(=O)c1c(C)cc(OC)c(C/C=C(\C)CCCc2coc(C=C(C)C)c2)c1OC | > 100
50 | Cc1cc(OP2(=O)NCc3ncccc3O2)ccc1Cl (stereo not given) | > 100
51 | O=C(O)c1cccc(S(=O)(=O)NN2C(=O)CSC2c2ccc(Cl)cc2Cl)c1 (stereo not given) | > 100

tested on: HL-60(TB) leukemia; test: inhibition of tumour cell growth, NCI panel, 48 h

Row | Compound | TGI [µM]
52 | CC(C)Oc1cccc(N2C(=NCc3c[nH]c4ccccc34)Nc3ccncc3S2(=O)=O)c1 | > 100
53 | COC(=O)c1c(C)cc(OC)c(C/C=C(\C)CCCc2coc(C=C(C)C)c2)c1OC | > 100
54 | O=C(O)c1cccc(S(=O)(=O)NN2C(=O)CSC2c2ccc(Cl)cc2Cl)c1 (stereo not given) | 34

tested on: HOP-62 NSCLC; test: inhibition of tumour cell growth, NCI panel, 48 h

Row | Compound | TGI [µM]
55 | CC(C)Oc1cccc(N2C(=NCc3c[nH]c4ccccc34)Nc3ccncc3S2(=O)=O)c1 | > 100
